In PubChem BioAssay AID330 (DTP/NCI, 2004):
“And” between values parts separate entries of the source, which are not always exact repeats. Equal entries are not always repeated. Toxic doses and inconclusive results are not listed.

Tested on: P388 leukemia ip, CD2F1 mice, survival T/C
Test: NCI In Vivo Anticancer Drug Screen. Data for tumor model P388 Leukemia (intraperitoneal) in CD2F1 (CDF1) mice
Conditions: endpoint: median survival time, higher = longer survival
Summary of the method: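 Mice carrying the transplanted tumor received test compound or vehicle. Survival was recorded in each group, and the value is the treated-group measurement divided by that of the vehicle-treated control group.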

[1] = dose: 60.0 mg/kg/injection, schedule: Q01DX005 (ip), vehicle: saline
[2] = dose: 120.0 mg/kg/injection, schedule: Q01DX005 (ip), vehicle: saline
[3] = dose: 50.0 mg/kg/injection, schedule: Q01DX009 (ip), vehicle: saline with Tween-80
[4] = dose: 100.0 mg/kg/injection, schedule: Q01DX009 (ip), vehicle: saline with Tween-80
[5] = dose: 60.0 mg/kg/injection, schedule: Q01DX005 (ip), vehicle: saline with Tween-80
[6] = dose: 120.0 mg/kg/injection, schedule: Q01DX005 (ip), vehicle: saline with Tween-80
[7] = dose: 240.0 mg/kg/injection, schedule: Q01DX005 (ip), vehicle: saline with Tween-80
[8] = dose: 50.0 mg/kg/injection, schedule: Q01DX005 (ip), vehicle: saline with Tween-80
[9] = dose: 50.0 mg/kg/injection, schedule: Q01DX005 (ip), vehicle: Klucel (hydroxypropylcellulose) (HPC)
[10] = dose: 100.0 mg/kg/injection, schedule: Q01DX005 (ip), vehicle: Klucel (hydroxypropylcellulose) (HPC)
[11] = dose: 200.0 mg/kg/injection, schedule: Q01DX005 (ip), vehicle: Klucel (hydroxypropylcellulose) (HPC)
[12] = dose: 50.0 mg/kg/injection, schedule: Q01DX005 (ip), vehicle: saline
[13] = dose: 100.0 mg/kg/injection, schedule: Q01DX005 (ip), vehicle: saline
[14] = dose: 100.0 mg/kg/injection, schedule: Q01DX009 (ip), vehicle: Klucel (hydroxypropylcellulose) (HPC)

In the case of `CC(=O)OC1OC(COS(=O)(=O)c2ccc(C)cc2)C(OC(C)=O)C(OC(C)=O)C1OC(C)=O` (stereo unspecified), the T/C (dose: 12.5 mg/kg/injection, schedule: Q01DX009 (ip), vehicle: other) was 93 % of control, the T/C (dose: 25.0 mg/kg/injection, schedule: Q01DX009 (ip), vehicle: other) was 90 % of control and the T/C (dose: 100.0 mg/kg/injection, schedule: Q01DX009 (ip), vehicle: other) was 87 % of control. For the same molecule, the T/C (dose: 200.0 mg/kg/injection, schedule: Q01DX009 (ip), vehicle: other) was 92 % of control.
For `Cc1cc(NC(=S)SCc2ccc(Cl)cc2)ccc1F`, the T/C (dose: 50.0 mg/kg/injection, schedule: Q01DX009 (ip), vehicle: suspension in saline) was 109 % of control, the T/C (dose: 100.0 mg/kg/injection, schedule: Q01DX009 (ip), vehicle: suspension in saline) was 100 % of control and the T/C (dose: 200.0 mg/kg/injection, schedule: Q01DX009 (ip), vehicle: suspension in saline) was 94 % of control.
For `Cc1cc(C#N)c[n+](C)c1`, the T/C [1] was 108 % of control and the T/C [2] was 95 % of control.
With `COc1cc(CN2CCN(CCO)CC2)c(O)c(CN2CCN(CCO)CC2)c1` the T/C [1] was 108 % of control, the T/C [2] was 108 % of control and the T/C (dose: 240.0 mg/kg/injection, schedule: Q01DX005 (ip), vehicle: saline) was 102 % of control.
`O=c1cccccc1Cl` was tested, and the T/C [3] was 104 % of control and the T/C [4] was 101 % of control.
For `O=C1C(N=Nc2ccccc2Cl)C(O)N(c2ccccc2)C(=S)N1c1cccc(Cl)c1Cl` (stereo unspecified), the T/C (dose: 100.0 mg/kg/injection, schedule: Q01DX001 (ip), vehicle: Klucel (hydroxypropylcellulose) (HPC)) was 98 % of control, the T/C (dose: 200.0 mg/kg/injection, schedule: Q01DX001 (ip), vehicle: Klucel (hydroxypropylcellulose) (HPC)) was 103 % of control and the T/C (dose: 400.0 mg/kg/injection, schedule: Q01DX001 (ip), vehicle: Klucel (hydroxypropylcellulose) (HPC)) was 97 % of control.
For `Cc1c(O)cnc2nn(-c3ccccc3)c(=N)n12`, the T/C [5] was 91 % of control, the T/C [6] was 92 % of control and the T/C [7] was 90 % of control.
`O=S(=O)(Nc1cccc(C(F)(F)F)c1)c1ccc(F)cc1` was tested, and the T/C [5] was 94 % of control, the T/C [6] was 100 % of control and the T/C [7] was 93 % of control.
For `CCN(CC)CCNc1n[nH]c(=O)c2ccccc12`, the T/C [3] was 104 % of control, the T/C [4] was 101 % of control and the T/C (dose: 200.0 mg/kg/injection, schedule: Q01DX009 (ip), vehicle: saline with Tween-80) was 95 % of control.
`CC(=O)Nc1ccc2c(Nc3ccc(NS(C)(=O)=O)cc3)c3ccccc3nc2c1` was tested, and the T/C (dose: 0.09 mg/kg/injection, schedule: Q01DX009 (ip), vehicle: saline) was 151 % of control, the T/C (dose: 0.09 mg/kg/injection, schedule: Q04DX003 (ip), vehicle: saline) was 156 % of control and the T/C (dose: 0.13 mg/kg/injection, schedule: Q01DX009 (ip), vehicle: saline) was 151 % of control. The T/C (dose: 0.13 mg/kg/injection, schedule: Q04DX003 (ip), vehicle: saline) was 175 % of control, the T/C (dose: 0.2 mg/kg/injection, schedule: Q01DX009 (ip), vehicle: saline) was 164 % of control and the T/C (dose: 0.2 mg/kg/injection, schedule: Q04DX003 (ip), vehicle: saline) was 166 % of control. For the same molecule, the T/C (dose: 0.29 mg/kg/injection, schedule: Q01DX009 (ip), vehicle: saline) was 190 % of control, the T/C (dose: 0.3 mg/kg/injection, schedule: Q01DX009 (ip), vehicle: saline) was 169 % of control and the T/C (dose: 0.3 mg/kg/injection, schedule: Q04DX003 (ip), vehicle: saline) was 175 % of control. The T/C (dose: 0.44 mg/kg/injection, schedule: Q01DX009 (ip), vehicle: saline) was 193 % of control, the T/C (dose: 0.66 mg/kg/injection, schedule: Q01DX009 (ip), vehicle: saline) was 193 % of control and the T/C (dose: 1.0 mg/kg/injection, schedule: Q01DX009 (ip), vehicle: saline) was 200 % of control. For the same molecule, the T/C (dose: 1.0 mg/kg/injection, schedule: Q04DX003 (ip), vehicle: saline) was 155 % of control, the T/C (dose: 2.2 mg/kg/injection, schedule: Q04DX003 (ip), vehicle: saline) was 177 % of control and the T/C (dose: 3.3 mg/kg/injection, schedule: Q04DX003 (ip), vehicle: saline) was 186 % of control. For the same molecule, the T/C (dose: 5.0 mg/kg/injection, schedule: Q04DX003 (ip), vehicle: saline) was 227 % of control and the T/C (dose: 7.5 mg/kg/injection, schedule: Q04DX003 (ip), vehicle: saline) was 245 % of control.
`NNC(=O)C(=O)Nc1nccs1` was tested, and the T/C [5] was 94 % of control and the T/C [6] was 95 % of control.
`O=C(CCCCCCCC(=O)Nc1ccc2c(=O)c3ccccc3[nH]c2c1)Nc1ccc2c(=O)c3ccccc3[nH]c2c1` was tested, and the T/C [8] was 103 % of control, the T/C (dose: 100.0 mg/kg/injection, schedule: Q01DX005 (ip), vehicle: saline with Tween-80) was 110 % of control and the T/C (dose: 200.0 mg/kg/injection, schedule: Q01DX005 (ip), vehicle: saline with Tween-80) was 92 % of control.
`CCO/C([O-])=C(\C=N\S(=O)(=O)c1ccc(C)cc1)[n+]1ccc(C)cc1` was tested, and the T/C (dose: 100.0 mg/kg/injection, schedule: Q04DX003 (ip), vehicle: Klucel (hydroxypropylcellulose) (HPC)) was 103 % of control, the T/C (dose: 200.0 mg/kg/injection, schedule: Q04DX003 (ip), vehicle: Klucel (hydroxypropylcellulose) (HPC)) was 100 % of control and the T/C (dose: 400.0 mg/kg/injection, schedule: Q04DX003 (ip), vehicle: Klucel (hydroxypropylcellulose) (HPC)) was 101 % of control.
`CNC(=S)N/N=C(C)/C=C/c1ccccc1` was tested, and the T/C [9] was 107 % of control, the T/C [10] was 101 % of control and the T/C [11] was 101 % of control.
In the case of `CCOC(=O)c1cnc2c(C)ccc(C)c2c1Nc1ccc2c(c1)OCO2`, the T/C (dose: 60.0 mg/kg/injection, schedule: Q01DX005 (ip), vehicle: Klucel + Tween-80) was 92 % of control, the T/C (dose: 120.0 mg/kg/injection, schedule: Q01DX005 (ip), vehicle: Klucel + Tween-80) was 90 % of control and the T/C (dose: 240.0 mg/kg/injection, schedule: Q01DX005 (ip), vehicle: Klucel + Tween-80) was 91 % of control.
`Nc1nc2nc[nH]c(=O)c2[nH]1` was tested, and the T/C (dose: 6.25 mg/kg/injection, schedule: Q01DX005 (ip), vehicle: saline with Tween-80) was 99 % of control, the T/C (dose: 12.5 mg/kg/injection, schedule: Q01DX005 (ip), vehicle: saline with Tween-80) was 99 % of control and the T/C (dose: 25.0 mg/kg/injection, schedule: Q01DX005 (ip), vehicle: saline with Tween-80) was 102 % of control and 106 % of control. For the same molecule, the T/C [8] was 102 % of control.
With `C/C(Cl)=C\C(=O)c1c(C)[nH]n(-c2ccccc2)c1=O` the T/C [9] was 99 % of control and the T/C [10] was 111 % of control.
For `COc1cccc(N2N=NCC2O)c1` (stereo unspecified), the T/C [5] was 104 % of control, the T/C [6] was 102 % of control and the T/C [7] was 104 % of control.
In the case of `CC1=CC(OC(C)C)OC1=O` (stereo unspecified), the T/C [12] was 108 % of control, the T/C [13] was 110 % of control and the T/C (dose: 200.0 mg/kg/injection, schedule: Q01DX005 (ip), vehicle: saline) was 110 % of control.
With `CCCCN(CCCC)C(=N)c1cc(OC)ccc1OC` the T/C (dose: 3.12 mg/kg/injection, schedule: Q01DX005 (ip), vehicle: saline) was 101 % of control and the T/C (dose: 6.25 mg/kg/injection, schedule: Q01DX005 (ip), vehicle: saline) was 100 % of control.
`Cc1c(C)c(C)c(S(=O)(=O)NCCNS(=O)(=O)c2c(C)c(C)c(C)c(C)c2C)c(C)c1C` was tested, and the T/C [9] was 103 % of control, the T/C [10] was 94 % of control and the T/C [11] was 93 % of control.
For `O=C1c2ccccc2C(=C2c3ccccc3C(=O)c3ccccc32)c2ccccc21`, the T/C (dose: 50.0 mg/kg/injection, schedule: Q01DX009 (ip), vehicle: Klucel (hydroxypropylcellulose) (HPC)) was 99 % of control, the T/C [14] was 91 % of control and the T/C (dose: 200.0 mg/kg/injection, schedule: Q01DX009 (ip), vehicle: Klucel (hydroxypropylcellulose) (HPC)) was 92 % of control. The T/C (dose: 400.0 mg/kg/injection, schedule: Q01DX009 (ip), vehicle: Klucel (hydroxypropylcellulose) (HPC)) was 97 % of control.
For `Cc1sc(NCc2ccccc2)c(C#N)c1C`, the T/C (dose: 6.25 mg/kg/injection, schedule: Q01DX009 (ip), vehicle: Klucel (hydroxypropylcellulose) (HPC)) was 101 % of control, the T/C (dose: 12.5 mg/kg/injection, schedule: Q01DX009 (ip), vehicle: Klucel (hydroxypropylcellulose) (HPC)) was 97 % of control and the T/C (dose: 25.0 mg/kg/injection, schedule: Q01DX009 (ip), vehicle: Klucel (hydroxypropylcellulose) (HPC)) was 93 % of control. The T/C [14] was 86 % of control.
With `Fc1cccc2c(SCCCCCSc3c4ccccc4nc4c(F)cccc34)c3ccccc3nc12` the T/C (dose: 60.0 mg/kg/injection, schedule: Q01DX005 (ip), vehicle: Klucel (hydroxypropylcellulose) (HPC)) was 93 % of control and the T/C (dose: 120.0 mg/kg/injection, schedule: Q01DX005 (ip), vehicle: Klucel (hydroxypropylcellulose) (HPC)) was 89 % of control.
In the case of `CCN(CC)Cc1c(O)ccc(C(C)=O)c1O`, the T/C [12] was 89 % of control and the T/C [13] was 100 % of control.
